The results in this text go back to patent US8835440B2, “Cyclic pyrimidin-4-carboxamides as CCR2 receptor antagonists for treatment of inflammation, asthma and COPD” (Boehringer Ingelheim International GmbH, priority 2008, dated 2014).

This assay deals with T1, CCR2 (Homo sapiens, UniProt P41597).
T1 construct: Membranes were prepared from THP-1 cells; endogenous in cells; host or cells: THP-1 cells (membrane preparation)
T1 sequence (P41597 1-360 isoform P41597-2): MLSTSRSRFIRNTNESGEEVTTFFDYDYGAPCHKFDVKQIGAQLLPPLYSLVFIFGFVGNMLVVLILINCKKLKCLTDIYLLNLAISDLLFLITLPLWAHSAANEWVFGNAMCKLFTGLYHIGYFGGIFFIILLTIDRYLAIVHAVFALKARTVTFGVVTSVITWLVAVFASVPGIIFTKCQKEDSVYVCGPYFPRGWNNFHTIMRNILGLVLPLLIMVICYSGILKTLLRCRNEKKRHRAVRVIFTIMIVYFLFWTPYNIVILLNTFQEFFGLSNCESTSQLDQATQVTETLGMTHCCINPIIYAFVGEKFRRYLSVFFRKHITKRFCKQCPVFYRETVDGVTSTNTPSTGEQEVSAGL
Description: CCR2 receptor membrane binding assay ([125I]MCP-1, THP-1 cell membranes, SPA beads). The note with it: for remaining activity at 10 µM: @ 10 μM test compound, THP-1 membranes, read-out: CCR2 % ctrl @ 10 μM; for Ki: dissociation constant hKi, [125I]MCP-1 binding to THP-1 membranes. The method, boiled down:
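Human THP-1 monocytic cell membranes, pre-coupled to WGA-PVT SPA beads, were incubated with compound and [125I]MCP-1 (ca. 25000 cpm) in 25 mM HEPES pH 7.2, 5 mM MgCl2, 0.5 mM CaCl2, 0.2% BSA, at 1% DMSO final. Bound radioactivity was counted after 8 h, and Ki was obtained by iterative mass-action fitting.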

For the compound `Cc1c(NCC2Cc3ccccc3C2)ncnc1C(=O)N1CCC(N2CCC(N(C)S(C)(=O)=O)CC2)CC1` [Example 61], the remaining activity at 10 µM turned out to be 2% and the Ki came to 0.046 µM. `Cc1c(NCCOc2ccccc2)ncnc1C(=O)N1CCC(N2CCC(O)CC2)CC1` [Example 16]: the remaining activity at 10 µM stood at 40% and the Ki is 1.9 µM. The like results for `Cc1c(NCC2COc3ccccc3C2)ncnc1C(=O)N1CCC(N2CCC(NS(C)(=O)=O)CC2)CC1` (stereo not drawn) [Example 71] were, in that order, 12% and 0.117 µM. Turning to `COc1nc(NCc2ccc(C(C)(C)C)cc2)c(C)c(C(=O)N2CCC(N3CCC(N(C)S(C)(=O)=O)CC3)CC2)n1` [Example 159b], the inhibitory constant (Ki) was found to be 0.007 µM. Turning to `Cc1nc(NCC2COc3ccccc3C2)c(C)c(C(=O)N2CCC(N3CCC(NS(C)(=O)=O)CC3)CC2)n1` (stereo not drawn) [Example 90], the remaining activity at 10 µM worked out at 10% and the Ki amounted to 0.127 µM.

For the compound `Cc1c(NCCc2ccc(Cl)c(Cl)c2)ncnc1C(=O)N1CCC(N2CCC(NC(=O)C(C)C)CC2)CC1` [Example 170], the remaining activity at 10 µM was found to be 31% and the affinity, expressed as Ki, was 0.705 µM.

For `Cc1c(NCc2ccc(Cl)c(Cl)c2)ncnc1C(=O)N1CCC(N2Cc3ccccc3C2)CC1` [Example 183], the remaining activity at 10 µM came out at 45% and the Ki amounted to 0.426 µM. In the same order, the values of `COC1COCCC1N(C)C1CCN(C(=O)c2ncnc(NCc3ccc(C(C)(C)C)cc3)c2C)CC1` (stereo not drawn) [Example 275b] are 3% and 0.026 µM.

As for `Cc1nc(NCc2ccc(Cl)c(Cl)c2)c(C)c(C(=O)N2CCC(N3CCC(N(C)S(C)(=O)=O)CC3)CC2)n1` [Example 82], the remaining activity at 10 µM was 4% and the Ki turned out to be 0.043 µM. For `Cc1c(NCc2ccc(C(C)(C)C)cc2)ncnc1C(=O)N1CCC(N2CCOCC2)CC1` [Example 52], the remaining activity at 10 µM was determined as 12% and the Ki is 0.175 µM. `C=Cc1c(NC[C@H]2CCC[C@@H](c3ccccc3)C2)ncnc1C(=O)N1CCC(N2CCC(N(C)S(C)(=O)=O)CC2)CC1` [Example 275dk] gave a Ki of 0.017 µM. The same measure, in the same setting: then `COC1COCCC1NC1CCN(C(=O)c2ncnc(NCC3Cc4ccccc4C3)c2C)CC1` (stereo not drawn) [Example 159fc], with 0.013 µM. `Cc1c(NCc2ccc(C(C)(C)C)nc2)ncnc1C(=O)N1CCC(N2CCC(N(C)S(C)(=O)=O)CC2)CC1` [Example 54]: the remaining activity at 10 µM was determined as 13% and the affinity corresponds to a Ki of 0.356 µM. Compound `CO[C@@H]1COCC[C@@H]1NC1CCN(C(=O)c2ncnc(NC[C@H]3C[C@@H](c4ccccc4)C3)c2C)CC1` [Example 275dg] gave a Ki of 0.012 µM.

Turning to `Cc1c(NC[C@H]2C[C@@H](c3ccccc3)C2)ncnc1C(=O)N1CCC(N2CCC(N(C)S(C)(=O)=O)CC2)CC1` [Example 159yb], the Ki was determined as 0.015 µM.

For the compound `Cc1c(NCCc2ccc(Cl)c(Cl)c2)ncnc1C(=O)N1CCC(N2CCC[C@@H](NS(C)(=O)=O)C2)CC1` [Example 174], the remaining activity at 10 µM turned out to be 53% and the Ki was determined as 2.72 µM.

`CO[C@H]1COCC[C@H]1NC1CCN(C(=O)c2ncnc(NC[C@H]3C[C@@H](c4ccccc4)C3)c2C)CC1` [Example 275dd] showed a Ki of 0.04 µM. As for `Cc1c(NCC2Cc3ccccc3C2)ncnc1C(=O)N1CCC(N2CCOCC2)CC1` [Example 46], the remaining activity at 10 µM stood at 12% and the affinity corresponds to a Ki of 0.225 µM.

As to `CCS(=O)(=O)N(C)C1CCN(C2CCN(C(=O)c3ncnc(NC[C@H]4CCN(c5ccccc5)C4)c3C)CC2)CC1` [Example 41], the remaining activity at 10 µM was found to be 6% and the Ki amounted to 0.011 µM. The like results for `Cc1c(NCc2ccc(Cl)c(Cl)c2)ncnc1C(=O)N1CCC(N2CC[C@H](NS(C)(=O)=O)C2)CC1` [Example 258] were, in that order, 4% and 0.064 µM.

`COC1CCN(C2CCN(C(=O)c3ncnc(NCc4ccc(C(C)(C)C)cc4)c3C)CC2)CC1` [Example 208]: the remaining activity at 10 µM was found to be 7% and the affinity, expressed as Ki, was 0.099 µM. In the same order, the values of `CC(=O)N(C)C1CCN(C2CCN(C(=O)c3ncnc(NCc4ccc(Cl)c(Cl)c4)c3C)CC2)CC1` [Example 194] are 25% and 0.491 µM.

As for `Cc1c(NCc2cccc(Cl)c2)ncnc1C(=O)N1CCC(N2CCCCC2)CC1` [Example 140], the remaining activity at 10 µM was found to be 16% and the Ki is 0.692 µM. In the same order, the values of `CNC(=O)C1CCN(C2CCN(C(=O)c3ncnc(NCCc4ccc(Cl)c(Cl)c4)c3C)CC2)CC1` [Example 173] are 6% and 0.089 µM. In the same order, the values of `CNS(=O)(=O)C1CCN(C2CCN(C(=O)c3ncnc(NCc4ccc(C(C)(C)C)cc4)c3C)CC2)CC1` [Example 221] are 12% and 0.172 µM. The like results for `CCS(=O)(=O)N(C)C1CCN(C2CCN(C(=O)c3ncnc(NCC4CCCN(c5ccccc5)C4)c3C)CC2)CC1` (stereo not drawn) [Example 38] were, in that order, 13% and 0.069 µM.

In the case of `Cc1c(NCc2ccc(C(C)(C)C)cc2)ncnc1C(=O)N1CCC(N2CCC(C#N)CC2)CC1` [Example 202], the remaining activity at 10 µM was determined as 7% and the Ki was found to be 0.292 µM. `Cc1cc(COc2ncnc(C(=O)N3CCC(N4CCC(N(C)S(C)(=O)=O)CC4)CC3)c2C)ccc1Cl` [Example 292]: the remaining activity at 10 µM was found to be 15% and the Ki worked out at 0.136 µM.

Consider `Cc1c(NCc2cccc(C(F)(F)F)c2)ncnc1C(=O)N1CCC(N2CCC(O)CC2)CC1` [Example 4], for which the remaining activity at 10 µM was 43% and the Ki came out at 1.59 µM. Take `Cc1nc(NCC2CCC(c3ccc(C)c(F)c3)O2)c(C)c(C(=O)N2CCC(N3CCC(N(C)S(C)(=O)=O)CC3)CC2)n1` (stereo not drawn) [Example 159ta]: the Ki was 0.027 µM. On to `CCc1c(NCc2cccc(-c3ccccc3)c2)ncnc1C(=O)N1CCC(N2CCC(O)CC2)CC1` [Example 282], for which the remaining activity at 10 µM is 39% and the Ki worked out at 1.53 µM.

Regarding `Cc1c(NCc2ccc(Cl)cc2)ncnc1C(=O)N1CCC(N2CCC(O)CC2)CC1` [Example 110], the remaining activity at 10 µM was determined as 28% and affinity was put at a Ki of 0.527 µM.

As for `Cc1c(NCCc2ccc(C(C)(C)C)cc2)ncnc1C(=O)N1CCC(N2CCC(O)CC2)CC1` [Example 112], the remaining activity at 10 µM is 21% and the Ki stood at 0.378 µM. The like results for `Cc1c(NCc2cccc(-c3ccccc3)c2)ncnc1C(=O)N1CCC(N2CCC(O)CC2)CC1` [Example 102] were, in that order, 15% and 0.224 µM.

Regarding `CNC(=O)[C@H]1CCN(C2CCN(C(=O)c3ncnc(NCc4ccc(Cl)c(Cl)c4)c3C)CC2)C1` [Example 257], the remaining activity at 10 µM was 14% and the affinity, expressed as Ki, was 0.186 µM.

For `Cc1c(NCC2CCC(c3cccc(C(F)(F)F)c3)O2)ncnc1C(=O)N1CCC(N2CCC(N(C)S(C)(=O)=O)CC2)CC1` (stereo not drawn) [Example 159pa], the affinity corresponds to a Ki of 0.032 µM. For the compound `Cc1c(NCCc2ccc(Cl)c(Cl)c2)ncnc1C(=O)N1CCC(N2CCOCC2)CC1` [Example 279], the remaining activity at 10 µM amounted to 9% and the Ki stood at 0.192 µM. The like results for `Cc1c(NC[C@H]2CCC[C@H](c3ccccc3)C2)ncnc1C(=O)N1CCC(N2CCC(N(C)S(C)(=O)=O)CC2)CC1` [Example 150] were, in that order, 3% and 0.012 µM.

On to `Cc1c(NC2COc3ccccc3C2)ncnc1C(=O)N1CCC(N2CCC(O)CC2)CC1` (stereo not drawn) [Example 24], for which the remaining activity at 10 µM was 58% and the inhibition constant Ki amounted to 4.03 µM. Regarding `O=C(c1cc(NCc2ccc(-c3ccccc3)cc2)ncn1)N1CCC(N2CCCC(O)C2)CC1` (stereo not drawn) [Example 103], the remaining activity at 10 µM was 30% and the Ki came to 1.61 µM. Take `Cc1c(NCC2CCC(C(F)(F)F)CC2)ncnc1C(=O)N1CCC(N2CCC(O)CC2)CC1` (stereo not drawn) [Example 13]: the remaining activity at 10 µM came to 42% and the Ki is 1.33 µM.

With `Cc1c(NCC2CCCC(c3ccccc3)C2)ncnc1C(=O)N1CCC(N2CCCCC2)CC1` (stereo not drawn) [Example 131], the remaining activity at 10 µM came out at 6% and the Ki stood at 0.055 µM. In the same order, the values of `Cc1c(NCc2ccc(C(C)(C)C)cc2)ncnc1C(=O)N1CCC(N2CCC(Oc3ccccn3)CC2)CC1` [Example 204] are 6% and 0.123 µM. In the same order, the values of `Cc1c(NCC2CCCC(c3ccccc3)C2)ncnc1C(=O)N1CCC(N2CCC(O)CC2)CC1` (stereo not drawn) [Example 114] are 8% and 0.062 µM.

Turning to `Cc1c(NC[C@H]2C[C@H](c3ccc(Cl)cc3)C2)ncnc1C(=O)N1CCC(N2CCC(N(C)S(C)(=O)=O)CC2)CC1` [Example 159tb], the affinity corresponds to a Ki of 0.013 µM. As to `CNC(=O)C1CCN(C2CCN(C(=O)c3ncnc(NCc4ccc(C(C)(C)C)cc4)c3C)CC2)CC1` [Example 261], the remaining activity at 10 µM turned out to be 8% and the Ki turned out to be 0.12 µM. In the same order, the values of `CNC(=O)C1(C)CCN(C2CCN(C(=O)c3ncnc(NCc4ccc(C(C)(C)C)cc4)c3C)CC2)CC1` [Example 224] are 35% and 1.23 µM. On to `Cc1c(NCc2ccc(Cl)c(Cl)c2)ncnc1C(=O)N1CCC(N2CCC(N3CCCC3=O)CC2)CC1` [Example 192], for which the remaining activity at 10 µM is 37% and the Ki is 1.45 µM.

A word on the Ki: it is the equilibrium dissociation constant of an inhibitor or competing ligand from its target.
